Target: T1, TM4SF5 and SLAMF7 (Homo sapiens, UniProt O14894)
T1 construct: expressed in transfected cells; host or cells: SNU761 human hepatocellular carcinoma cells
T1 sequence (O14894 1-197): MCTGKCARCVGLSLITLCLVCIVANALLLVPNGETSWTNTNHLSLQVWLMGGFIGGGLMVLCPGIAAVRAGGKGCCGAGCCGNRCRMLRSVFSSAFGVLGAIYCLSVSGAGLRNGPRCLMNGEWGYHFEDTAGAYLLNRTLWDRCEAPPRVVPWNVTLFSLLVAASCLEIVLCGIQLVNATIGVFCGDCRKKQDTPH
Assay: Streptavidin pulldown: binding between TM4SF5 and SLAMF7
Assay type: cell-based
Method: Cells were cultured to ~60% density in a cell incubator at 37°C and 5% CO2, and then transfected using PEI and cultured in a cell incubator at 37°C for two days. After cultivation, cell extracts were obtained by the method described above. After precipitating a desired protein from the cell extracts using an immunoprecipitation method, the binding proteins were identified by the Western blot technique described above. Specifically, cells cultured in a 100 mm cell culture dish for two days were washed twice with PBS, and protease inhibitor cocktails (GenDepot, USA) were added to 500 µl of immunoprecipitation lysis buffer (0.5% Triton X-100 or Brij 58, 40 mM HEPES, 150 mM NaCl, 1 mM EDTA, pH 7.4), followed by treatment at 4°C for 15 minutes. After collecting the cells, centrifugation was performed at 12,000x g at 4°C for 15 minutes, and the supernatant was transferred to a new microcentrifuge tube to obtain a cell extract. Proteins therein were quantified using a BCA reagent (Thermo Scientifics, USA). An electrophoresis sample was prepared by adding 4x laemmli sample buffer to a portion of the quantified sample and boiling at 100°C for 5 minutes. For immunoprecipitation, Streptavidin Agarose Resin (Thermo Fisher Scientific) or anti-HA antibody-coated Sepharose beads were added in proportion to the quantified protein amount, followed by rotation at 4°C for 4 hours, and then centrifugation was performed at 7,000x g at 4°C for 5 minutes and the supernatant was discarded. […] (f) After treating NK92-EV or NK92-TM4SF5 cells with DMSO or drugs ST-2-001 (1 nM), ST-3-005 (10 nM or 1 µM), ST-5-001, or ST-5-002 (100 nM or 1 µM) for 24 hours, the expression of SLAMF7 expressed on the cell surface was analyzed through immunostaining using flow cytometry. The expression level of SLAMF7 was confirmed by adding a SLAMF7 antibody to bind with SLAMF7 and then measuring the fluorescence linked to the SLAMF7 antibody using flow cytometry. […]

[1] = SNU761 expressing TM4SF5-Strep and FLAG-SLAMF7, 24 hours, brij58 lysis (FIG. 15e-f)

Row | binding between TM4SF5 and SLAMF7 (2.5 µM, 24 hours, SNU761 (FIG. 13j)) | SMILES | binding between TM4SF5 and SLAMF7 [1]
1 | inhibited | CC(=O)Nc1ccc(-c2cc(-c3ccc(O)cc3)no2)cc1 [ST-5-001, N-(4-(3-(4-hydroxyphenyl)isoxazole-5-yl)phenyl)acetamide] | –
2 | – | Cc1ccc(C(=O)Nc2ccc(-c3cc(-c4ccc(O)cc4)no3)cc2)cc1 [ST-5-002, N-(4-(3-(4-hydroxyphenyl)isoxazole-5-yl)phenyl)-4-methylbenzamide] | decreased
3 | – | COc1cccc(-c2cc(-c3ccc(NC(C)=O)cc3)no2)c1 [ST-3-001, N-(4-(5-(3-methoxyphenyl)isoxazole-3-yl)phenyl)acetamide] | did not decrease but rather showed an increasing trend
